Results: patent US10933063B2 (priority 2017, dated 2021)

Target: BTK (Homo sapiens (Human), UniProt Q06187)
Conditions: read-out: BTK Inhibition
Experimental: Btk kinase activity was determined using a homogenous time resolved fluorescence (HTRF) methodology. Measurements were performed in a reaction volume of 15 μL using 384-well assay plates. Kinase enzyme, inhibitor, ATP and 1 μM peptide substrate were incubated in a reaction buffer compose of Hepes50 mM (pH7.0), NaN3 0.02%, BSA 0.01%, Orthocanadate 0.1 mM. […] For each compound, enzyme activity as measured at various concentrations of compound, Negative control reactions were performed in the absence of inhibitor in two replicates and eight no enzyme controls were used to determine baseline fluorescence levels.

Chain of BTK (Q06187 whole entry, looked up, species assumed): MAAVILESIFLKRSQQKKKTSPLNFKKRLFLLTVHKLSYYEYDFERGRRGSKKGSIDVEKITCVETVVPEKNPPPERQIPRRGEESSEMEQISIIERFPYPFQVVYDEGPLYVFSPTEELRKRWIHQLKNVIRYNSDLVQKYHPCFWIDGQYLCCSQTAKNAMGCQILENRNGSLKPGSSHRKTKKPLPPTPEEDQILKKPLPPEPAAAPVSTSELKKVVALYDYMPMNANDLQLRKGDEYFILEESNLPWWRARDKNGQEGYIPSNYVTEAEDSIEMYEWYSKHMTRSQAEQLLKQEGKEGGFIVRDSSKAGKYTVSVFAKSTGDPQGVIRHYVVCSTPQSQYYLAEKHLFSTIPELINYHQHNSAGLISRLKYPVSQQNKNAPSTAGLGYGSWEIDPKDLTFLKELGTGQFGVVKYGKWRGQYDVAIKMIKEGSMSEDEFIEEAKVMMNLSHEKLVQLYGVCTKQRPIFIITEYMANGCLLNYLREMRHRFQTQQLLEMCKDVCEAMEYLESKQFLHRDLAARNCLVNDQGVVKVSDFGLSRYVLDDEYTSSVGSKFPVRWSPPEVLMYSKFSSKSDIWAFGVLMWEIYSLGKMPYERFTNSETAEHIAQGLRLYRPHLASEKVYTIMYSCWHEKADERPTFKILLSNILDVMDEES

SMILES	IC50
CC#CC(=O)N1CCCC[C@H]1c1nc(-c2ccc(C(=O)Nc3ccccn3)cc2)c2c(C(F)(F)F)nccn12 [Example 200, (S)-4-(3-(1-(but-2-ynoyl)piperidin-2-yl)-8-(trifluoromethyl)imidazo [1,5-a]pyrazin-1-yl)-N-(pyridin-2-yl)benzamide]	> 10000 nM
C=CC(=O)N1CC[C@@H](c2nc(-c3ccc(Oc4cccc(OC)c4F)cc3)c3c(CC)nccn23)C1 [Example 106, (R)-1-(3-(8-ethyl-1-(4-(2-fluoro-3-methoxyphenoxy)phenyl)imidazo[1,5-a]pyrazin-3-yl)pyrrolidin-1-yl)prop-2-en-1-one]	< 10 nM
C=CC(=O)N1CC[C@@H](c2nc(-c3ccc(Oc4cccc(OC)c4F)cc3)c3cncc(OCC)n23)C1 [Example 94, (R)-1-(3-(5-ethoxy-1-(4-(2-fluoro-3-methoxyphenoxy)phenyl)imidazo[1,5-a]pyrazin-3-yl)pyrrolidin-1-yl)prop-2-en-1-one]	< 10 nM
CC#CC(=O)N1CCC[C@H]1c1nc(-c2ccc(Oc3ccccc3)nc2)c2cnccn12 [Example 15, (S)-1-(2-(1-(6-phenoxypyridin-3-yl)imidazo[1,5-a]pyrazin-3-yl)pyrrolidin-1-yl)but-2-yn-1-one]	> 10000 nM
C=CC(=O)N1CCCC[C@H]1c1nc(-c2ccc(C(=O)Nc3ccccn3)cc2)c2c(C3CC3)nccn12 [Example 191, (S)-4-(3-(1-acryloylpiperidin-2-yl)-8-cyclopropylimidazo [1,5-a]pyrazin-1-yl)-N-(pyridin-2-yl)benzamide]	> 10000 nM
CC#CC(=O)N1CC[C@@H](c2nc(-c3ccc(Oc4cccc(OC)c4F)cc3)c3cnccn23)C1 [Example 69, (R)-1-(3-(1-(4-(2-fluoro-3-methoxyphenoxy)phenyl)imidazo[1,5-a]pyrazin-3-yl)pyrrolidin-1-yl)but-2-yn-1-one]	< 10 nM
C=CC(=O)N1CCC[C@@H](c2nc(-c3ccc(C(=O)Nc4ccccn4)cc3)c3c(C)ncc(C)n23)C1 [Example 184, (R)-4-(3-(1-acryloylpiperidin-3-yl)-5,8-dimethylimidazo [1,5-a]pyrazin-1-yl)-N-(pyridin-2-yl)benzamide]	< 10 nM
CC#CC(=O)N1CCCC[C@H]1c1nc(-c2ccc(Oc3cccc(OC)c3F)cc2)c2c(C(F)(F)F)nccn12 [Example 122, (S)-1-(2-(1-(4-(2-fluoro-3-methoxyphenoxy)phenyl)-8-(trifluoromethyl)imidazo[1,5-a]pyrazin-3-yl)piperidin-1-yl)but-2-yn-1-one]	> 10000 nM
CC#CC(=O)N1CCC[C@H]1c1nc(-c2ccc(Oc3cccc(OC)c3F)cc2)c2c(C(N)=O)nccn12 [Example 38, (S)-3-(1-(but-2-ynoyl)pyrrolidin-2-yl)-1-(4-(2-fluoro-3-methoxyphenoxy)phenyl)imidazo[1,5-a]pyrazine-8-carboxamide]	> 10000 nM
C=CC(=O)N1CCC[C@H]1c1nc(-c2ccc(C(=O)Nc3ccccn3)cc2)c2c(C)ncc(C)n12 [Example 174, (S)-4-(3-(1-acryloylpyrrolidin-2-yl)-5,8-dimethylimidazo [1,5-a]pyrazin-1-yl)-N-(pyridin-2-yl)benzamide]	< 10 nM
C=CC(=O)N1CCC[C@H]1c1nc(-c2ccc(C(=O)Nc3ccccn3)cc2)c2c(C3CC3)nccn12 [Example 190, (S)-4-(3-(1-acryloylpyrrolidin-2-yl)-8-cyclopropylimidazo [1,5-a]pyrazin-l-yl)-N-(pyridin-2-yl)benzamide]	> 10000 nM
C=CC(=O)N1CCCC[C@H]1c1nc(-c2ccc(Oc3cccc(C)c3)cc2)c2c(C)nccn12 [Example 40, (S)-1-(2-(8-methyl-1-(4-(m-tolyloxy)phenyl)imidazo[1,5-a]pyrazin-3-yl)piperidin-1-yl)prop-2-en-1-one]	< 10 nM
CN(C)C(=O)N1CCCC[C@H]1c1nc(-c2ccc(C(=O)Nc3cc(C(F)(F)F)ccn3)cc2)c2c(C(F)(F)F)nccn12 [Example 216, (S)-N,N-dimethyl-2-(8-(trifluoromethyl)-1-(4-((4-(trifluoromethyl)pyridin-2-yl)carbamoyl)phenyl)imidazo[1,5-a]pyrazin-3-yl)piperidine-1-carboxamide]	> 10000 nM
C=CC(=O)N1CC[C@@H](c2nc(-c3ccc(C(=O)Nc4ccccn4)cc3)c3cncc(OCC)n23)C1 [Example 194, (R)-4-(3-(1-acryloylpyrrolidin-3-yl)-5-ethoxyimidazo [1,5-a]pyrazin-1-yl)-N-(pyridin-2-yl)benzamide]	< 10 nM
C=CC(=O)N1CCCC[C@H]1c1nc(-c2ccc(C(=O)Nc3ccccn3)cc2)c2c(C(F)(F)F)nccn12 [Example 199, (S)-4-(3-(1-acryloylpiperidin-2-yl)-8-(trifluoromethyl)imidazo[1,5-a]pyrazin-1-yl)-N-(pyridin-2-yl)benzamide]	> 10000 nM
C=CC(=O)N1CC[C@@H](c2nc(-c3ccc(Oc4cccc(OC)c4F)cc3)c3cncc(OCCN(C)C)n23)C1 [Example 89, (R)-1-(3-(5-(2-(dimethylamino)ethoxy)-1-(4-(2-fluoro-3-methoxyphenoxy)phenyl)imidazo[1,5-a]pyrazin-3-yl)pyrrolidin-1-yl)prop-2-en-1-one]	< 10 nM

SMILES	IC50
C=CC(=O)N1CC[C@@H](c2nc(-c3ccc(Oc4cccc(OC)c4F)cc3)c3cncc(OC4CCOC4)n23)C1 (stereo partly drawn) [Example 98, 1-((3R)-3-(1-(4-(2-fluoro-3-methoxyphenoxy)phenyl)-5-((tetrahydrofuran-3-yl)oxy)imidazo[1,5-a]pyrazin-3-yl)pyrrolidin-1-yl)prop-2-en-1-one]	< 10 nM
C=CC(=O)N1CCCC[C@H]1c1nc(-c2ccc(Oc3cccc(OC)c3)cc2)c2c(C)nccn12 [Example 48, (S)-1-(2-(1-(4-(3-methoxyphenoxy)phenyl)-8-methylimidazo[1,5-a]pyrazin-3-yl)piperidin-1-yl)prop-2-en-1-one]	< 10 nM
C=CC(=O)N1CCC[C@H]1c1nc(-c2ccc(Oc3cccc(OC)c3F)cc2)c2cncc(C)n12 [Example 62, (S)-1-(2-(1-(4-(2-fluoro-3-methoxyphenoxy)phenyl)-5-methylimidazo[1,5-a]pyrazin-3-yl)pyrrolidin-1-yl)prop-2-en-1-one]	< 10 nM
CC#CC(=O)N1CC[C@@H](c2nc(-c3ccc(Oc4cccc(OC)c4F)cc3)c3cncc(OCC)n23)C1 [Example 93, (R)-1-(3-(5-ethoxy-1-(4-(2-fluoro-3-methoxyphenoxy)phenyl)imidazo[1,5-a]pyrazin-3-yl)pyrrolidin-1-yl)but-2-yn-1-one]	< 10 nM
C=CC(=O)N1CCC[C@H]1c1nc(-c2ccc(Oc3cccc(OC)c3F)cc2)c2c(C)nccn12 [Example 61, (S)-1-(2-(1-(4-(2-fluoro-3-methoxyphenoxy)phenyl)-8-methylimidazo[1,5-a]pyrazin-3-yl)pyrrolidin-1-yl)prop-2-en-1-one]	< 10 nM
C=CC(=O)N1CC[C@@H](c2nc(-c3ccc(Oc4cccc(OC)c4F)cc3)c3cncc(OC4CCC4)n23)C1 [Example 100, (R)-1-(3-(5-cyclobutoxy-1-(4-(2-fluoro-3-methoxyphenoxy)phenyl)imidazo[1,5-a]pyrazin-3-yl)pyrrolidin-1-yl)prop-2-en-1-one]	< 10 nM
C=CC(=O)N1CCCC[C@H]1c1nc(-c2ccc(C(=O)Nc3ccccn3)cc2)c2c(C)nccn12 [Example 170, (S)-4-(3-(1-acryloylpiperidin-2-yl)-8-methylimidazo [1,5-a]pyrazin-1-yl)-N-(pyridin-2-yl)benzamide]	< 10 nM
CC#CC(=O)N1CC[C@@H](c2nc(-c3ccc(Oc4cccc(OC)c4F)cc3)c3c(C(N)=O)nccn23)C1 [Example 108, (R)-3-(1-(but-2-ynoyl)pyrrolidin-3-yl)-1-(4-(2-fluoro-3-methoxyphenoxy)phenyl)imidazo[1,5-a]pyrazine-8-carboxamide]	> 10000 nM
CC#CC(=O)N1CC[C@@H](c2nc(-c3ccc(Oc4cccc(OC)c4F)cc3)c3c(OC)nccn23)C1 [Example 116, (R)-1-(3-(1-(4-(2-fluoro-3-methoxyphenoxy)phenyl)-8-methoxyimidazo[1,5-a]pyrazin-3-yl)pyrrolidin-1-yl)but-2-yn-1-one]	> 10000 nM
CCCCOc1cncc2c(-c3ccc(Oc4cccc(OC)c4F)cc3)nc([C@@H]3CCN(Cc4ccccc4)C3)n12 [Example 102, (R)-3-(1-benzylpyrrolidin-3-yl)-5-butoxy-1-(4-(2-fluoro-3-methoxyphenoxy)phenyl)imidazo[1,5-a]pyrazine]	> 10000 nM
C=CC(=O)N1CCC[C@H]1c1nc(-c2ccc(Oc3cccc(OC)c3F)cc2)c2cncc(OC)n12 [Example 82, (S)-1-(2-(1-(4-(2-fluoro-3-methoxyphenoxy)phenyl)-5-methoxyimidazo[1,5-a]pyrazin-3-yl)pyrrolidin-1-yl)prop-2-en-1-one]	< 10 nM
CC#CC(=O)N1CCCC[C@H]1c1nc(-c2ccc(C(=O)Nc3cc(C(F)(F)F)ccn3)cc2)c2c(C(F)(F)F)nccn12 [Example 202, (S)-4-(3-(1-(but-2-ynoyl)piperidin-2-yl)-8-(trifluoromethyl)imidazo [1,5-a]pyrazin-1-yl)-N-(4-(trifluoromethyl)pyridin-2-yl)benzamide]	> 10000 nM
C=CC(=O)N1CC[C@@H](c2nc(-c3ccc(Oc4cccc(OC)c4F)cc3)c3c(C)ncc(C)n23)C1 [Example 74, (R)-1-(3-(1-(4-(2-fluoro-3-methoxyphenoxy)phenyl)-5,8-dimethylimidazo[1,5-a]pyrazin-3-yl)pyrrolidin-1-yl)prop-2-en-1-one]	< 10 nM
C=CC(=O)N1CCC[C@H]1c1nc(-c2ccc(Oc3cccc(Cl)c3F)cc2)c2cnccn12 [Example 22, (S)-1-(2-(1-(4-(3-chloro-2-fluorophenoxy)phenyl)imidazo[1,5-a]pyrazin-3-yl)pyrrolidin-1-yl)prop-2-en-1-one]	< 10 nM
CC#CC(=O)N1CCCC[C@H]1c1nc(-c2ccc(C(=O)Nc3ccccn3)cc2)c2c(C3CC3)nccn12 [Example 192, (S)-4-(3-(1-(but-2-ynoyl)piperidin-2-yl)-8-cyclopropylimidazo[1,5-a]pyrazin-1-yl)-N-(pyridin-2-yl)benzamide]	> 10000 nM
CC#CC(=O)N1CC[C@@H](c2nc(-c3ccc(Oc4cccc(OC)c4F)cc3)c3c(C(C)C)nccn23)C1 [Example 112, (R)-1-(3-(1-(4-(2-fluoro-3-methoxyphenoxy)phenyl)-8-isopropylimidazo[1,5-a]pyrazin-3-yl)pyrrolidin-1-yl)but-2-yn-1-one]	> 10000 nM
